Experimental data as given in patent publication US4000293A, “Method of inhibiting bacterial growth with certain selected 3-chloro-2-oxazolidinones” (Interx Research Corporation, priority 1975, dated 1976).

Assays:
[1] = tested on: Staphylococcus aureus ATCC 6538; experiment: contact germicidal (bactericidal) time before and after 14 day incubation of solutions at 40° C., Table B; type: cell-based; conditions: pH 7.0
Description: (§1) The compounds of the invention and certain reference compounds were tested in the germidical efficiency test, a modification of the standard serial dilution test, against Staphylococcus aureus ATCC 6538. In the germicidal efficiency test, instead of determining the minimum inhibitory concentration as in the serial dilution test procedure, the time required to effect complete sterilization of the micro-organism when exposed to a given concentration of the test substance is determined. This procedure affords a basis of comparison of the time dependent efficacies of the various test substances which gives a measure not only of the germidical efficacy of the test species but, since as will be seen germicidal efficiency of the N-chloro compounds generally tends to diminish with time, apparently owing to decomposition of, and therefore dilution of, the active species, the test procedure also provides an indication of the efficacy to be expected at varying time intervals after solution of the test species in the application medium. The test procedure is described as follows: A stock solution of known concentration of each compound to be tested was prepared in 0.1M sodium dihydrogen phosphate buffered to pH 7.0. To 5 ml. of the test solution was added 0.2 ml. of an overnight broth culture containing from 6×10^6 to 8×10^6 organisms/ml. of Staphylococcus aureus ATCC 6538 and 5 g. of gelysate peptone and 3 g. of beef extract per 1000 ml. of water. At time intervals of 0.5, 1, 2, 3, 4, 5, 6, 7, 8, 9, 10, 15 and 30 minutes, a loop of this suspension was subcultured into 5 ml. of sterile nutrient broth (5 g. of gelysate peptone and 3 g. of beef extract/1000 ml. of water), and the samples were incubated at 37° C. for 7 days with daily observation for evidence of bacterial growth. The time interval in which no bacterial growth was observed after the incubation period in a particular sample was recorded as the end point.
(§2) The stabilities and the time-dependent efficacies of the claimed and reference species were determined by comparing the contact germicidal times and the initial and final concentrations of positive chlorine in solutions of the test species in 0.1M sodium dihydrogen phosphate buffered to pH 7.0 before and after 14 day incubation of the solutions at 40° C. The results are given in Table B below, where the columns headed "Bc Time" refers to the bactericidal time in minutes.

[2] = tested on: Staphylococcus aureus ATCC 6538; experiment: germicidal efficiency test (modified serial dilution; time to complete sterilization), Table A; type: cell-based; conditions: pH 7.0
Description: The compounds are thus useful as bactericidal agents.
as §1
(§3) The germicidal kill times so-obtained at various concentrations of the compounds of the invention and of certain reference compounds are given in Table A below. The compounds are identified in each case by the Example number above where the compounds are described. Here and elsewhere in the specification that follows, concentrations are expressed in parts per million (ppm) of "positive" chlorine, which was determined in each instance by addition of excess aqueous potassium iodide to an acidified solution of the test compound and titration of the iodine liberated with standard sodium thiosulfate solution.

[3] = positive chlorine concentration before and after 14 day incubation of solutions at pH 7.0, 40° C., Table B; type: physicochemical
Description: as §3, §2

[4] = stability in the neat state (% chlorine by iodometric titration), Table D; type: physicochemical; conditions: 40° C.
Description: In those instances, the data were acquired at ambient temperature (approximately 23° C.). The method used was similar to that described above in which the rate of disappearance of "positive" chlorine was followed iodometrically by titration of iodine liberated from added potassium iodide with standard sodium thiosulfate solution. Samples of the compounds were individually sealed in ampoules and stored in the dark at 23° C. or 40° C. and weighed amounts removed from time to time for analysis.
For each of the compounds analyzed as indicated above, percent chlorine was plotted as ordinate against time in days as abscissa on semi-logarithmic paper and the points connected by a smooth curve for each compound.

[5] = hydrolytic stability in 0.1M sodium dihydrogen phosphate pH 7.0 at 40° (first-order kinetics), Table C; type: physicochemical
Description: A further measure of the relative stabilities of the reference and claimed species was obtained by measuring the hydrolytic stability of the various species in 0.1M sodium dihydrogen phosphate buffered to pH 7.0 at 40°. For each species, the rate of change in the concentration of positive chlorine in the solution was measured by the volume of standard thiosulfate required to titrate a series of aliquots of a standard volume of the solution at various time intervals using potassium iodide/sodium thiosulfate as detailed above. The volumes of thiosulfate required to titrate each sample so obtained were interpreted as first-order kinetic processes. The hydrolytic stabilities of the reference and claimed species under the experimental conditions were characterized by the reaction rate constants and half-lives obtained from a linear regression analysis of the experimental data. The results obtained are given in Table C below and are also shown in FIG. 1 where the volumes in milliliters of standard thiosulfate required to titrate the positive chlorine in the various samples are plotted as ordinate against time in days as abscissa.

## CC1(C)COC(=O)N1Cl [Example 1F, 3-Chloro-4,4-dimethyl-2-oxazolidinone]
[1]; after 14 day incubation at 40° C.
  Bc Time, final: 2 min
[1]; after 14 days at 40° C.
  bactericidal activity after the test period (in words): retained the original level of bactericidal activity
[1]; before incubation, at initial ppm +Cl of the same line
  Bc Time, initial: 2 min
[2]; 148 ppm +Cl
  Bactericidal Time: 5 min
[2]; 195 ppm +Cl
  Bactericidal Time: 5 min
[2]; 368 ppm +Cl
  Bactericidal Time: 3 min
[2]; 508 ppm +Cl
  Bactericidal Time: 2 min
[3]; 14 days, 40° C., pH 7.0
  decomposition over the test period (in words): decomposed only slightly over the test period
[3]; after 14 day incubation at 40° C., 0.1M phosphate pH 7.0
  Final Concn. of positive chlorine: 527 ppm +Cl
[3]; before incubation, 0.1M phosphate pH 7.0
  Initial Concn. of positive chlorine: 534 ppm +Cl
[4]; 0 Days
  % Cl, neat: 23.4%
[4]; 1 Day
  % Cl, neat: 23.0%
[4]; 2 Days
  % Cl, neat: 23.8%
[4]; 7 Days
  % Cl, neat: 23.5%
[4]; 35 Days
  % Cl, neat: 24.2%
[4]; 49 Days
  % Cl, neat: 23.3%
[4]; neat
  stability in the neat state (in words): surprising stability
[5]; 0.1m phosphate buffer, hydrolysis, 0.1M phosphate pH 7.0, 40°
  half-life: 84.9 days
[5]; hydrolysis, first-order, 0.1M phosphate pH 7.0, 40°
  Rate Constant k: 0.00034 h⁻¹
[5]; pH 7.0, 40°
  hydrolytic stability (in words): unusual stability
